Laboratory results published in patent EP4494649A1, “PEPTIDES FOR USE IN THE TREATMENT OF AXONAL DAMAGE IN DIABETES” (Universität zu Köln, priority 2023, dated 2025).

What was measured:
Cdk5-p35 = settings: embryonal neuronal cells; cited from earlier work
Cdk5-p25 = settings: embryonal neuronal cells; cited from earlier work
CRMP2 = assay: Inhibitory CRMP2 phosphorylation (pCRMP2^T514) in DRG of diabetic mice, Western blot and immunostaining; type: in vivo
Procedure: (§1) To model type 1 diabetes mellitus (T1DM), male and female wild-type Ola received a single intraperitoneal injection of 100 mg/kg streptozotocin (strep) or vehicle (veh; 0.1 M citrate buffer, pH 4.5) at 4-6 weeks of age. The efficacy of the treatment was confirmed by assessing blood glucose levels 1 week after injection. Strep mice with over 250 mg/dl of blood glucose were considered diabetic. Thus, diabetes was induced 2 months before sciatic nerve crush.
The intrathecal application of anti-peptide against CDK5 (AP-CDK5) and P5 was performed with the above-described method to assess anatomical regeneration. […]
DRG (L3-L5) or 3 mm of the sciatic nerves proximal to the injury site from three mice per group were homogenized by sonication in 100 µl lysis buffer (20 mM Tris-HCl pH 7.5, 10 mM KCl, 250 mM sucrose, 10 mM NaF, 1mM DTT, 0.1 mM Na3VO4, 1% Triton X-100, 0.1% SDS, 1% protease inhibitors (Merck Millipore) and phosphatase inhibitors (Roche)). […] All antibodies were detected with anti-rabbit or anti-mouse IgG secondary antibodies conjugated to HRP (1:80,000; Sigma). […]
[…] Antibodies were detected with anti-rabbit, anti-goat, or anti-mouse secondary antibodies conjugated to Dylight-405,_Alexa-594, or Alexa-488.
Figure 1H illustrates the timeline of experiments. […] After SNC, SSI and von Frey tests were assessed before the day of SNC, and days 1, 4, 7, 9, 14, 21, 28, and 35 thereafter. […]

diabetic sciatic nerve [1] = assay: Anatomical axon regeneration after sciatic nerve crush (SNC) in streptozotocin-induced T1DM mice; type: in vivo; settings: strep-induced T1DM mice, intrathecal injection 1 day prior and on the day of the SNC, 3 dpi
Procedure: as §1
All surgical procedures on mice adhered to respective animal care guidelines and were approved by the local authorities (LANUV Recklinghausen). For intrathecal AAV2.1 (CRMP2T514A-HA, GFP, tdTomato, and Cre-GFP: titer: ≥7·1012 vg/ml, Addgene), a 5 mm skin incision was made above the L4-L5 spines. The muscle tissue was carefully spread, and 2.5 µl of the viral solution was injected into the cerebrospinal fluid between the L4 and L5 spines using a Nanoject II injector (Drummond Scientific) with three consecutive 833 nl injections with a speed of 23 nl/s and 20 s intervals between injections. The skin was closed using 6-0 sutures. Transduction was performed 2 weeks before sciatic nerve crush (SNC). SNC was performed as described in Gobrecht et al., Nature Communications 5, 4561 (2014) and Gobrecht et al., (2016). In brief, animals were anesthetized by inhalation anaesthesia with 1.5% isoflurane in oxygen, and a skin incision of 5 mm was made above the gluteal region. […]
For assessment of anatomical regeneration, the sciatic nerves were isolated 3 days post-injury (dpi). […] Regeneration of sympathetic fibers was quantified with immunostaining against tyrosine hydroxylase (TH; Novus, 1:500; RRID:AB_10077691).
To verify the regeneration-stimulating effect of the peptide, axonal regeneration was determined in vivo. […] Anatomical regeneration was assessed 3 days post-injury (dpi).
To verify the regeneration-stimulating effect in vivo, axonal regeneration was determined. […] Anatomical regeneration was assessed 3 days post-injury (dpi).

diabetic sciatic nerve [2] = assay: von Frey test, functional sensory recovery after SNC in diabetic mice; type: in vivo; settings: i.p. daily 400 µg/kg from the day of SNC, Figure 1M
Procedure: (§2) The intrathecal application of anti-peptide against CDK5 (AP-CDK5) and P5 was performed with the above-described method to assess anatomical regeneration. Either 2 µl AP-CDK5 or P5 (each 4 mg/ml) or vehicle (DMSO) was injected the day before SNC and the day of SNC or the day of SNC and the day after. For analyses of functional recovery, AP-CDKS was injected daily at 400 µg/kg from the day of SNC until the mice were sacrificed. AP-CDKS and P5 (Genescript) were fused to a TAT-sequence for cell membrane penetration and had the following sequence: AP-CDKS: […] and (SEQ ID No. 3) P5: […] (SEQ ID No. 13).
Sensory recovery after SNC was determined at the indicated time points after SNC with the von Frey filament test as described in Gobrecht et al., 2014 and Gobrecht et al., (2016). Tests were performed at the same time of day by the same experimenter. Mice were placed on an elevated metal grid (pore size: 2 mm) and allowed to acclimate for 15 min before testing. […] Statistical significances of intergroup differences were evaluated using two-way ANOVA followed by the Holm Sidak post hoc test.
Figure 1H illustrates the timeline of experiments. […] After SNC, SSI and von Frey tests were assessed before the day of SNC, and days 1, 4, 7, 9, 14, 21, 28, and 35 thereafter.

diabetic sciatic nerve [3] = assay: Static sciatic index (SSI), functional motor recovery after SNC in diabetic mice; type: in vivo
Procedure: as §2
Motor recovery after SNC was determined by calculating the SSI as described in Baptista AF et al., 2007, J Neurosci Methods 161, 259-264 and Gobrecht et al., Nature Communications 5, 1-10 (2014). […] Toe spreading on contralateral (C, left) and ipsilateral (I, right) sides relative to the SNC was assessed by measuring paw_length (PL) and the_distance between the first and fifth toe (FF). The SSI was then calculated using the previously described formula: SSI = 101.3((IFF-CFF)/CFF)-54.03((IPL-CPL)/CPL)-9.5 in as described in Baptista AF et al., 2007, J Neurosci Methods 161, 259-264.
Data represent mean SSI±SEM per experimental group. Statistical significances of intergroup differences were evaluated using two-way ANOVA followed by the Holm Sidak post hoc test. […]

Sequence	activity of endogenous Cdk5-p35 (Cdk5-p35)	deregulated Cdk5-p25 activity (Cdk5-p25)	CRMP2 inactivation in neurons (pCRMP2^T514 immunostaining) (CRMP2; DRG (L6), strep-treated mice, i.p. injection, tissue harvested after completing functional recovery, Figure 1N)	CRMP2 inactivation in DRG neurons (pCRMP2^T514 Western blot) (CRMP2; L4-L6 DRG, strep T1DM mice, i.p. every day from the SNC until sacrifice, Figures 1I, 1J)	anatomical regeneration of motor fibers (diabetic sciatic nerve [1]; ChAT staining)	anatomical regeneration of sensory fibers (diabetic sciatic nerve [1]; SCG10 staining)	anatomical regeneration of sympathetic fibers (diabetic sciatic nerve [1]; TH staining)	functional sensory recovery determined by the von Frey test (diabetic sciatic nerve [2])	functional motor recovery assessed by static sciatic index (SSI) (diabetic sciatic nerve [3]; i.p. daily 400 µg/kg from the day of SNC, Figure 1L)	axon regeneration (pictures of the injured paw) (diabetic sciatic nerve [3]; i.p. daily from SNC, before and 1, 7, 14, 21, 28, 35 dpi, Figure 1K)
KEAFWDRCLSVINLMSSKMLQINA (listed as Homo sapiens) [p5]	did not affect	inhibited								
LVESCKEAFWDRCLSVINLMSSKMYARAARRAARR (REGION 1..35: note = Fusion peptide) [AP-CDK5]			strongly reduced	strongly reduced	accelerated	accelerated	accelerated	provide a functional effect	provide a functional effect	accelerated
